Source: US8119647B2, “Fused pyrimidineone compounds as TRPV3 modulators” (Glenmark Pharmaceuticals S.A., priority 2008, dated 2012)

Target: T1, Human TRPV3 (Homo sapiens, UniProt Q8NET8)
T1 construct: expressed in transfected cells; host or cells: CHO cells (G-418 selection)
T1 sequence (Q8NET8 1-790): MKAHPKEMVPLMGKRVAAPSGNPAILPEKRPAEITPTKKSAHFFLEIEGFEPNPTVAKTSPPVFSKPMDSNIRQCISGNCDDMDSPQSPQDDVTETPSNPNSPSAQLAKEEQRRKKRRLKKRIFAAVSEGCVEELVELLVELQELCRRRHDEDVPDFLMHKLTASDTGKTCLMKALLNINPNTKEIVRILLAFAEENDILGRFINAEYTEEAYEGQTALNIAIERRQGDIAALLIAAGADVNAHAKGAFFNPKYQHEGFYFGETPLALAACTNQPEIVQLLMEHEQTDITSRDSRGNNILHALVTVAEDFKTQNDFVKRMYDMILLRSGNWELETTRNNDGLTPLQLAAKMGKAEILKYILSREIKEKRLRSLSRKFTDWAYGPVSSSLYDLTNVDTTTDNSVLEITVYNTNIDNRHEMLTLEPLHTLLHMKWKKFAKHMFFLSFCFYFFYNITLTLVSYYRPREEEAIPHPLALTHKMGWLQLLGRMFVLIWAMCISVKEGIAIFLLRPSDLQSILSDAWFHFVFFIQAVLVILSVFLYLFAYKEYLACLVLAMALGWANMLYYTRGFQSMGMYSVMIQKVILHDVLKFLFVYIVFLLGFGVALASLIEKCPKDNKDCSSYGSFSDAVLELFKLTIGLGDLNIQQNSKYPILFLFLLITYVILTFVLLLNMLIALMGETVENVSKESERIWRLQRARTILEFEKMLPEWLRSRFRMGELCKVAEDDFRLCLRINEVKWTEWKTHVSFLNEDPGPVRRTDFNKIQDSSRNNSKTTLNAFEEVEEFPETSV
Experiment: Screening for TRPV3 antagonist using the 45Calcium uptake assay (inhibition of 2-APB induced cellular uptake of radioactive calcium)
Assay type: cell-based
Details: human TRPV3 expressing CHO cells, 2-APB 500 μM; for inhibition at 1 µM / Percentage inhibition at 1.0 μM: 1.0 μM test compound; for inhibition at 1 µM: read-out: Percentage inhibition at 1.0 μM; for inhibition at 10 µM / Percentage inhibition at 10.0 μM: 10.0 μM test compound; for inhibition at 10 µM: read-out: Percentage inhibition at 10.0 μM; for IC50: class symbols
Method in brief: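 CHO cells stably expressing human TRPV3, preincubated 10 min with test compound, then 2-APB (500 μM final) plus 5 μCi/ml 45Ca2+ for 4 min in DMEM/F-12 with 1.8 mM CaCl2; 0.5% DMSO final. Lysate radioactivity by scintillation counting. IC50 by nonlinear regression of % maximal response; % inhibition at 1.0 and 10.0 μM.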

| SMILES | inhibition at 1 µM [%] | inhibition at 10 µM [%] | IC50 [nM] | Percentage inhibition at 1.0 μM [%] | Percentage inhibition at 10.0 μM [%] |
| --- | --- | --- | --- | --- | --- |
| COc1cccc(/C=C/c2nc3sccn3c(=O)c2-c2ccc(C#N)cc2)c1OCC(C)(C)C [Example 13, 4-{7-[(E)-2-(3-Methoxy-2-neopentyloxyphenyl)-1-ethenyl]-5-oxo-5H-[1,3]thiazolo[3,2-a]pyrimidin-6-yl}benzonitrile] | 91.9 | 95.4 | < 250 | – | – |
| COc1cccc(/C=C/c2nc3sc4ccccc4n3c(=O)c2-c2ccc(C#N)cc2)c1OCCCC#N [Example 83, 4-(2-{(E)-2-[2-(3-Cyanopropoxy)-3-methoxyphenyl}-1-ethenyl}-4-oxo-4H-benzo[4,5]-[1,3]thiazolo-[3,2]pyrimidin-3-yl)benzonitrile] | – | – | – | 23.6 | 57.1 |
| COc1cccc(/C=C/c2nc3sccn3c(=O)c2-c2ccc(N(C)C)cc2)c1OCC(C)(C)C [Example 42, 6-(4-Dimethylaminophenyl)-7-[(E)-2-(3-methoxy-2-neopentyloxy)phenyl-1-ethenyl]-5H-[1,3]thiazolo[3,2-a]pyrimidin-5-one] | 62.7 | 78.5 | – | – | – |
| CCOCCOc1c(/C=C/c2nc3sc4ccccc4n3c(=O)c2-c2ccc(C#N)cc2)cccc1OC [Example 85] | 81.8 | 91.9 | < 250 | – | – |
| CCOc1ccc(-c2c(/C=C/c3cccc(OC)c3OCC3CC3)nc3sccn3c2=O)cc1 [Example 44, 7-[(E)-2-(2-Cyclopropylmethoxy-3-methoxyphenyl)-1-ethenyl]-6-(4-ethoxyphenyl)-5H-[1,3]thiazolo[3,2-a]pyrimidin-5-one] | 44 | 88.6 | – | – | – |
| COc1cccc(/C=C/c2nc3sccn3c(=O)c2-c2ccc(C(F)(F)F)cc2)c1OCC(C)C [Example 27, 7-[(E)-2-(2-Isobutoxy-3-methoxyphenyl)-1-ethenyl]-6-[4-(trifluoromethyl)phenyl]-5H-[1,3]thiazolo[3,2-a]pyrimidin-5-one] | 69.6 | 88 | < 250 | – | – |
| COc1cccc(/C=C/c2nc3sccn3c(=O)c2-c2ccc(C#N)cc2)c1OCCC(C)C [Example 11, 4-{7-[(E)-2-(2-Isopentyloxy-3-methoxyphenyl)-1-ethenyl]-5-oxo-5H-[1,3]thiazolo[3,2-a]pyrimidin-6-yl}benzonitrile] | 76.2 | 90 | < 250 | – | – |
| O=c1c(-c2ccc(OC(F)(F)F)cc2)c(/C=C/c2cccc(OCC3CC3)c2OCC2CC2)nc2sccn12 [Example 64, 7-{(E)-2-[2-(Cyclopropylmethoxy)-3-(cyclopropylmethoxy)phenyl]-1-ethenyl}-6-(4-trifluoromethoxyphenyl)-5H-[1,3]thiazolo[3,2-a]pyrimidin-5-one] | 16.3 | 21.1 | – | – | – |
| COc1cccc(/C=C/c2nc3sccn3c(=O)c2-c2ccc(C#N)cc2)c1OCc1cccc(F)c1 [Example 20] | – | – | – | 56.5 | 79.3 |
| COCCOc1c(/C=C/c2nc3sc4ccccc4n3c(=O)c2-c2ccc(C(F)(F)F)cc2)cccc1OC [Example 92, 2-{(E)-2-[(2-Methoxyethoxy)-3-methoxyphenyl]-1-ethenyl}-3-(4-trifluoromethylphenyl)-4H-benzo[4,5][1,3]thiazolo-[3,2-a]pyrimidin-4-one] | – | – | – | 23.11 | 47.48 |
